Laboratory results published in patent US20160310477A1, “CANCER TREATMENTS USING COMBINATIONS OF MEK TYPE 1 AND ERK INHIBITORS” (BIOMED VALLEY DISCOVERIES, INC., priority 2013, published 2016).

How the values were obtained:
[1] = tested on: MAPK signaling in HCT116 cells; assay: Western blot of MAPK signaling markers; type: cell-based, human; conditions: HCT116, 4 hours, micromolar concentrations
Experimental: For Western blot studies, HCT116 cells (5×10^6) were seeded into 10 cm dishes in McCoy's 5A plus 10% FBS. […] Cells were allowed to adhere overnight prior to addition of the indicated amount of test compound (BVD-523) or vehicle control. Cells were treated for either 4 or 24 hours before isolation of whole-cell protein lysates, as specified below. Cells were harvested by trypsinisation, pelleted and snap frozen. Lysates were prepared with RIPA (Radio-Immunoprecipitation Assay) buffer, clarified by centrifugation and quantitated by bicinchoninic acid assay (BCA) assay. 20-50 μg of protein was resolved by SDS-PAGE electrophoresis, blotted onto PVDF membrane and probed using the antibodies detailed in Table 5 (for the 4-hour treatment) and Table 6 (for the 24-hour treatment) below. [table]

[2] = tested on: MAPK signaling in A375 cells; assay: Western blot of MAPK signaling, cell cycle and apoptosis markers; type: cell-based, human
ERK = conditions: Morris et al., 2013; cited from earlier work

Compound	phosphorylation of ERK-dependent residues (T359/S363) in RSK 1 and 2 proteins [1]	cyclin-D1 level ([2]; 24 hours of treatment)	phosphorylation of ERK-dependent residues (T359/S363) in RSK 1 and 2 proteins ([2]; A375, 4 hours, micromolar concentrations)	Bim-EL level ([2]; A375, prolonged treatment)	apoptosis / PARP cleavage ([2]; A375, prolonged treatment)	MAPK feedback phosphatase DUSP6 level ([2]; BRAF mutant cell line, 24 hours of treatment)	autophosphorylation of ERK ([2]; FIG. 1 Western blot)	concentrations required to induce changes in substrate phosphorylation and effector targets of ERK ([2]; RAF and RAS mutant cancer cells, Western blot, 4 or 24 h)	autophosphorylation of ERK (ERK)
CC(C)Nc1cc(-c2c[nH]c(C(=O)N[C@H](CO)c3cccc(Cl)c3)c2)c(Cl)cn1 [BVD-523]	reduced	greatly reduced	reduced	increased	increased apoptosis was not observed	greatly reduced	allows for the autophosphorylation of ERK	low micromolar range	
O=C(Nc1ccc2[nH]nc(-c3ccncc3)c2c1)[C@@H]1CCN(CC(=O)N2CCN(c3ccc(-c4ncccn4)cc3)CC2)C1 [SCH772984]									inhibits autophosphorylation of ERK
